# Experimental data: patent US20260345596A1, “TREATMENT OF LOCALLY ADVANCED OR METASTATIC UROTHELIAL CARCINOMA WITH ERDAFINITIB” (priority 2023, published 2026)
# Test: Study BLC3001 (NCT03390504, THOR) Cohort 1: safety, adverse events, laboratory abnormalities and exposure
# Settings: for Central serous retinopathy / Chorioretinopathy / Detachment of macular retinal pigment epithelium / Detachment of retinal pigment epithelium / Eye disorders (excluding central serous retinopathy) / Macular detachment / Nail disorders / Retinopathy / Skin disorders / Subretinal fluid: adverse events of interest; for Hematuria / Hyponatremia / Urinary tract infection: serious adverse events, any cause
structure (smiles),measurement,setting,value
"COc1cc(OC)cc(N(CCNC(C)C)c2ccc3ncc(-c4cnn(C)c4)nc3c2)c1 [Erdafitinib, N-(3,5-dimethoxyphenyl)-N′-(1-methylethyl)-N-[3-(1-methyl-1H-pyrazol-4-yl)quinoxalin-6-yl]ethane-1,2-diamine]",Ongoing central serous retinopathy events of grade 1,5 of 7 ongoing,71%
same,Central serous retinopathy events resolved by clinical cutoff,"16 of 23 patients, any grade",70%
same,Central serous retinopathy,Grade 1,12 (8.9) no. (%)
same,Chorioretinopathy,Grade 1,5 (3.7) no. (%)
same,Detachment of macular retinal pigment epithelium,Grade 1,0 no. (%)
same,Detachment of retinal pigment epithelium,Grade 1,3 (2.2) no. (%)
same,Eye disorders (excluding central serous retinopathy),Grade 1,37 (27.4) no. (%)
same,Macular detachment,Grade 1,2 (1.5) no. (%)
same,Nail disorders,Grade 1,25 (18.5) no. (%)
same,Retinopathy,Grade 1,0 no. (%)
same,Skin disorders,Grade 1,27 (20) no. (%)
same,Subretinal fluid,Grade 1,4 (3.0) no. (%)
same,Hematuria,Grade 1,0 no. (%)
same,Hyponatremia,Grade 1,0 no. (%)
same,Urinary tract infection,Grade 1,0 no. (%)
same,Alanine aminotransferase increased,"Grade 1, treatment-emergent",28 (20.7) no. (%)
same,Alopecia,"Grade 1, treatment-emergent",29 (21.5) no. (%)
same,Anemia,"Grade 1, treatment-emergent",10 (7.4) no. (%)
same,Aspartate aminotransferase increased,"Grade 1, treatment-emergent",21 (15.6) no. (%)
same,Asthenia,"Grade 1, treatment-emergent",6 (4.4) no. (%)
same,Constipation,"Grade 1, treatment-emergent",24 (17.8) no. (%)
same,Decreased appetite,"Grade 1, treatment-emergent",18 (13.3) no. (%)
same,Diarrhea,"Grade 1, treatment-emergent",49 (36.3) no. (%)
same,Dry eye,"Grade 1, treatment-emergent",20 (14.8) no. (%)
same,Dry mouth,"Grade 1, treatment-emergent",45 (33.3) no. (%)
same,Dry skin,"Grade 1, treatment-emergent",23 (17.0) no. (%)
same,Dysgeusia,"Grade 1, treatment-emergent",28 (20.7) no. (%)
same,Fatigue,"Grade 1, treatment-emergent",12 (8.9) no. (%)
same,Hyperphosphatemia,"Grade 1, treatment-emergent",70 (51.9) no. (%)
same,Nausea,"Grade 1, treatment-emergent",10 (7.4) no. (%)
same,Neutropenia,"Grade 1, treatment-emergent",0 no. (%)
same,Onycholysis,"Grade 1, treatment-emergent",9 (6.7) no. (%)
same,Onychomadesis,"Grade 1, treatment-emergent",9 (6.7) no. (%)
same,Palmar-plantar erythrodysesthesia syndrome,"Grade 1, treatment-emergent",6 (4.4) no. (%)
same,Stomatitis,"Grade 1, treatment-emergent",22 (16.3) no. (%)
same,Weight decreased,"Grade 1, treatment-emergent",12 (8.9) no. (%)
same,Alanine aminotransferase increased,"Grade 1, treatment-related",18 (13.3) no. (%)
same,Alopecia,"Grade 1, treatment-related",27 (20.0) no. (%)
same,Anemia,"Grade 1, treatment-related",8 (5.9) no. (%)
same,Aspartate aminotransferase increased,"Grade 1, treatment-related",18 (13.3) no. (%)
same,Asthenia,"Grade 1, treatment-related",4 (3.0) no. (%)
same,Constipation,"Grade 1, treatment-related",8 (5.9) no. (%)
same,Decreased appetite,"Grade 1, treatment-related",15 (11.1) no. (%)
same,Diarrhea,"Grade 1, treatment-related",43 (31.9) no. (%)
same,Dry eye,"Grade 1, treatment-related",19 (14.1) no. (%)
same,Dry mouth,"Grade 1, treatment-related",44 (32.6) no. (%)
same,Dry skin,"Grade 1, treatment-related",22 (16.3) no. (%)
same,Dysgeusia,"Grade 1, treatment-related",25 (18.5) no. (%)
same,Fatigue,"Grade 1, treatment-related",12 (8.9) no. (%)
same,Hyperphosphatemia,"Grade 1, treatment-related",70 (51.9) no. (%)
same,Nausea,"Grade 1, treatment-related",6 (4.4) no. (%)
same,Neutropenia,"Grade 1, treatment-related",0 no. (%)
same,Onycholysis,"Grade 1, treatment-related",9 (6.7) no. (%)
same,Onychomadesis,"Grade 1, treatment-related",8 (5.9) no. (%)
same,Palmar-plantar erythrodysesthesia syndrome,"Grade 1, treatment-related",6 (4.4) no. (%)
same,Stomatitis,"Grade 1, treatment-related",20 (14.8) no. (%)
same,Central serous retinopathy,Grade 2,8 (5.9) no. (%)
same,Chorioretinopathy,Grade 2,3 (2.2) no. (%)
same,Detachment of macular retinal pigment epithelium,Grade 2,0 no. (%)
same,Detachment of retinal pigment epithelium,Grade 2,2 (1.5) no. (%)
same,Eye disorders (excluding central serous retinopathy),Grade 2,17 (12.6) no. (%)
same,Macular detachment,Grade 2,0 no. (%)
same,Nail disorders,Grade 2,50 (37.0) no. (%)
same,Retinopathy,Grade 2,2 (1.5) no. (%)
same,Skin disorders,Grade 2,31 (23.0) no. (%)
same,Subretinal fluid,Grade 2,1 (0.7) no. (%)
same,Hematuria,Grade 2,2 (1.5) no. (%)
same,Hyponatremia,Grade 2,0 no. (%)
same,Urinary tract infection,Grade 2,0 no. (%)
same,Alanine aminotransferase increased,"Grade 2, treatment-emergent",8 (5.9) no. (%)
same,Alopecia,"Grade 2, treatment-emergent",4 (3.0) no. (%)
same,Aspartate aminotransferase increased,"Grade 2, treatment-emergent",5 (3.7) no. (%)
same,Asthenia,"Grade 2, treatment-emergent",12 (8.9) no. (%)
same,Constipation,"Grade 2, treatment-emergent",12 (8.9) no. (%)
same,Decreased appetite,"Grade 2, treatment-emergent",14 (10.4) no. (%)
same,Diarrhea,"Grade 2, treatment-emergent",31 (23.0) no. (%)
same,Dry eye,"Grade 2, treatment-emergent",3 (2.2) no. (%)
same,Dry mouth,"Grade 2, treatment-emergent",8 (5.9) no. (%)
same,Dry skin,"Grade 2, treatment-emergent",6 (4.4) no. (%)
same,Dysgeusia,"Grade 2, treatment-emergent",8 (5.9) no. (%)
same,Fatigue,"Grade 2, treatment-emergent",8 (5.9) no. (%)
same,Hyperphosphatemia,"Grade 2, treatment-emergent",31 (23.0) no. (%)
same,Nausea,"Grade 2, treatment-emergent",8 (5.9) no. (%)
same,Neutropenia,"Grade 2, treatment-emergent",0 no. (%)
same,Onycholysis,"Grade 2, treatment-emergent",14 (10.4) no. (%)
same,Onychomadesis,"Grade 2, treatment-emergent",17 (12.6) no. (%)
same,Palmar-plantar erythrodysesthesia syndrome,"Grade 2, treatment-emergent",22 (16.3) no. (%)
same,Stomatitis,"Grade 2, treatment-emergent",32 (23.7) no. (%)
same,Weight decreased,"Grade 2, treatment-emergent",15 (11.1) no. (%)
same,Alanine aminotransferase increased,"Grade 2, treatment-related",7 (5.2) no. (%)
same,Alopecia,"Grade 2, treatment-related",4 (3.0) no. (%)
same,Anemia,"Grade 2, treatment-related",4 (3.0) no. (%)
same,Aspartate aminotransferase increased,"Grade 2, treatment-related",5 (3.7) no. (%)
same,Asthenia,"Grade 2, treatment-related",6 (4.4) no. (%)
same,Constipation,"Grade 2, treatment-related",4 (3.0) no. (%)
same,Decreased appetite,"Grade 2, treatment-related",10 (7.4) no. (%)
same,Diarrhea,"Grade 2, treatment-related",27 (20.0) no. (%)
same,Dry eye,"Grade 2, treatment-related",3 (2.2) no. (%)
same,Dry mouth,"Grade 2, treatment-related",8 (5.9) no. (%)
same,Dry skin,"Grade 2, treatment-related",6 (4.4) no. (%)
same,Dysgeusia,"Grade 2, treatment-related",8 (5.9) no. (%)
same,Fatigue,"Grade 2, treatment-related",6 (4.4) no. (%)
same,Hyperphosphatemia,"Grade 2, treatment-related",29 (21.5) no. (%)
same,Nausea,"Grade 2, treatment-related",7 (5.2) no. (%)
same,Neutropenia,"Grade 2, treatment-related",0 no. (%)
same,Onycholysis,"Grade 2, treatment-related",14 (10.4) no. (%)
same,Onychomadesis,"Grade 2, treatment-related",17 (12.6) no. (%)
same,Palmar-plantar erythrodysesthesia syndrome,"Grade 2, treatment-related",22 (16.3) no. (%)
same,Stomatitis,"Grade 2, treatment-related",31 (23.0) no. (%)
same,Central serous retinopathy,Grade ≥3,3 (2.2) no. (%)
same,Chorioretinopathy,Grade ≥3,0 no. (%)
same,Detachment of macular retinal pigment epithelium,Grade ≥3,1 (0.7) no. (%)
same,Detachment of retinal pigment epithelium,Grade ≥3,2 (1.5) no. (%)
same,Eye disorders (excluding central serous retinopathy),Grade ≥3,3 (2.2) no. (%)
same,Macular detachment,Grade ≥3,0 no. (%)
same,Nail disorders,Grade ≥3,15 (11.1) no. (%)
same,Retinopathy,Grade ≥3,0 no. (%)
same,Skin disorders,Grade ≥3,16 (11.9) no. (%)
same,Subretinal fluid,Grade ≥3,0 no. (%)
same,Hematuria,Grade ≥3,3 (2.2) no. (%)
same,Hyponatremia,Grade ≥3,3 (2.2) no. (%)
same,Urinary tract infection,Grade ≥3,6 (4.4) no. (%)
same,Alanine aminotransferase increased,"Grade ≥3, treatment-emergent",4 (3.0) no. (%)
same,Alopecia,"Grade ≥3, treatment-emergent",1 (0.7) no. (%)
same,Anemia,"Grade ≥3, treatment-emergent",10 (7.4) no. (%)
same,Aspartate aminotransferase increased,"Grade ≥3, treatment-emergent",3 (2.2) no. (%)
same,Asthenia,"Grade ≥3, treatment-emergent",2 (1.5) no. (%)
same,Constipation,"Grade ≥3, treatment-emergent",0 no. (%)
same,Decreased appetite,"Grade ≥3, treatment-emergent",4 (3.0) no. (%)
same,Diarrhea,"Grade ≥3, treatment-emergent",4 (3.0) no. (%)
same,Dry eye,"Grade ≥3, treatment-emergent",0 no. (%)
same,Dry mouth,"Grade ≥3, treatment-emergent",0 no. (%)
same,Dry skin,"Grade ≥3, treatment-emergent",2 (1.5) no. (%)
same,Dysgeusia,"Grade ≥3, treatment-emergent",1 (0.7) no. (%)
same,Fatigue,"Grade ≥3, treatment-emergent",0 no. (%)
same,Hyperphosphatemia,"Grade ≥3, treatment-emergent",7 (5.2) no. (%)
same,Nausea,"Grade ≥3, treatment-emergent",2 (1.5) no. (%)
same,Neutropenia,"Grade ≥3, treatment-emergent",0 no. (%)
same,Onycholysis,"Grade ≥3, treatment-emergent",8 (5.9) no. (%)
same,Onychomadesis,"Grade ≥3, treatment-emergent",2 (1.5) no. (%)
same,Palmar-plantar erythrodysesthesia syndrome,"Grade ≥3, treatment-emergent",13 (9.6) no. (%)
same,Stomatitis,"Grade ≥3, treatment-emergent",11 (8.1) no. (%)
same,Weight decreased,"Grade ≥3, treatment-emergent",3 (2.2) no. (%)
same,Alanine aminotransferase increased,"Grade ≥3, treatment-related",4 (3.0) no. (%)
same,Alopecia,"Grade ≥3, treatment-related",1 (0.7) no. (%)
same,Anemia,"Grade ≥3, treatment-related",4 (3.0) no. (%)
